The values below come from patent US20240165154A1, “METHODS AND AGENTS FOR MODULATING ADOPTIVE IMMUNOTHERAPY” (The Regents of the University of California, priority 2021, published 2024).

The structures appear in SMILES notation.

Series [1] relates to CD8+ T cells from spleens of BL/6J mice. Kind of series: T cell proliferation assay (CELLTRACE Violet) of MSCV-transduced CD8+ T cells in metabolic conditions. It counts as cell-based, mouse. To be noted: 48 hr. On the procedure: Spleens from BL/6J mice (Jackson Laboratory #000664; https://www.jax.org/strain/000664) were harvested, minced, resuspended in fluorescence-activated cell sorting (FACS) buffer (phosphate buffered saline (PBS)+2% fetal bovine serum (FBS)+1 mM ethylene diamine tetra-acetic acid (EDTA) (THERMOFISHER SCIENTIFIC™, #15575020)), and strained through a 40-micron nylon mesh filter (Millipore Sigma, CLS431750-50EA). The cellular suspension was then centrifuged at 600× g for 10 minutes before isolating CD8+ T cells using standard protocol from an immunomagnetic separation kit (EASYSEP™ Mouse CD8+ T Cell Isolation Kit, STEMCELL™ Technologies, #19853).
For activation, 5×10^6 stained CD8+ T cells were resuspended in 1 mL of complete T cell medium (RPMI 1640+10% fetal bovine serum (FBS)+1 mM Na Pyruvate+10 mM 4-(2-hydroxyethyl)-1-piperazineethanesulfonic acid (HEPES)+1% penicillin/streptomycin (pen/strep)+0.1% beta-mercaptoethanol) supplemented with 2 ug/mL anti-CD28 clone 37.51 (BIOXCELL™, #BE0015-1) and plated into one well of a 12 well plate coated with 10 micrograms/mL (μg/mL) of anti-CD3e clone 2C11 (BIOXCELL™, #BE0001-1). 24 hours later, plates were lightly spun down at 100× g for 2 minutes, before removing 800 ul of supernatant. 1 mL of T cell media containing concentrated virus was then overlaid, before centrifugation at 800×g for 1 hour at 32C (32° C.). […]

For series [2], the system named is B16 melanoma cell line constitutively expressing GFP. Kind of series: B16 melanoma proliferation/survival assay in HG, LG, LG+C (GFP positivity as proxy for viability). It counts as cell-based. Conditions: starvation (low glucose, LG) conditions + cellobiose (+C). The text has this: The protocol for proliferation of the B16 melanoma tumor cell line (FIG. 19) constitutively expressing GFP is identical to the other proliferation assays described above, minus the prior transfection with plasmids.
In order to study the effects of cellobiose on tumors, the high glucose (HG), low glucose (LG), and low glucose+cellobiose (LG+C) in vitro studies of FIGS. 18A-18B were repeated using a B16 melanoma cell line constitutively expressing GFP.

For series [3] the following is noted: after intravenous infusion; cited from earlier work.

Turning to `O=C[C@H](O)[C@@H](O)[C@H](O[C@@H]1O[C@H](CO)[C@@H](O)[C@H](O)[C@H]1O)[C@H](O)CO` [cellobiose], the “T-cell proliferation (CELLTRACE VIOLET) of mCh+ GFP+ cells co-transduced with CDT-1 and GH1-1” value in series [1] (low glucose + cellobiose (LG+C) vs low glucose) is reported as “rescued T-cell proliferation”. Further, the “wild-type (WT) T-cell proliferation” value in series [1] (low glucose environment when cellobiose was added) is given as “minor increase”. In addition, in series [2], the “B16 melanoma tumor survival (GFP positivity as proxy for cell viability)” value was “did not promote B16 melanoma tumor survival”. Moreover, the “excretion in the urine” value in series [3] was “vast majority of cellobiose is excreted in the urine”.
